# Laboratory results published in ChEMBL document CHEMBL1909046, “DrugMatrix in vitro pharmacology data”.
# Biological target: Carbonic anhydrase 2 (Homo sapiens, UniProt P00918)
# Experiment: DRUGMATRIX: Carbonic Anhydrase II enzyme inhibition (substrate: 4-Nitrophenyl acetate (4-NPA))
# Type: tissue-based, Erythrocyte
# Details: erythrocyte; Not Active = under 50% inhibition at 10 µM
Compound,IC50,Ki
CC[C@]1(O)CC[C@H]2[C@@H]3CCC4=CCCC[C@@H]4[C@H]3CC[C@@]21C,Not Active,
O=C(c1ccccc1Cl)N1CCC(Cc2ccccc2)CC1,Not Active,
C#C[C@]1(O)CC[C@H]2[C@@H]3CCC4=Cc5oncc5C[C@]4(C)[C@H]3CC[C@@]21C [DANAZOL],Not Active,
C#C[C@]1(O)CC[C@H]2[C@@H]3CCc4cc(O)ccc4[C@H]3CC[C@@]21C [ETHINYL ESTRADIOL],Not Active,
CC(=O)O[C@]1(C(C)=O)CC[C@H]2[C@@H]3C=C(C)C4=CC(=O)CC[C@]4(C)[C@H]3CC[C@@]21C [MEGESTROL ACETATE],Not Active,
CN(Cc1cnc2nc(N)nc(N)c2n1)c1ccc(C(=O)N[C@@H](CCC(=O)O)C(=O)O)cc1 [METHOTREXATE],Not Active,
CNC(=C[N+](=O)[O-])NCCSCc1csc(CN(C)C)n1 [NIZATIDINE],Not Active,
COc1ccc(Cc2nccc3cc(OC)c(OC)cc23)cc1OC [PAPAVERINE],Not Active,
Cc1cccc(Nc2cc(Cl)nc(SCC(=O)O)n2)c1C [PIRINIXIC ACID],Not Active,
COBALT(II) ACETYLACETONATE,Not Active,Not Active
INSULIN HUMAN,Not Active,Not Active
POLYVINYL ALCOHOL,Not Active,Not Active

# Biological target: Cytochrome P450 2C19 (Homo sapiens, UniProt P33261); note: in other assays of this panel Not Active means under 50% inhibition at 10 µM
# Experiment: not given
# Details: not given
# Cytochrome P450 2C19, sequence (P33261 whole entry): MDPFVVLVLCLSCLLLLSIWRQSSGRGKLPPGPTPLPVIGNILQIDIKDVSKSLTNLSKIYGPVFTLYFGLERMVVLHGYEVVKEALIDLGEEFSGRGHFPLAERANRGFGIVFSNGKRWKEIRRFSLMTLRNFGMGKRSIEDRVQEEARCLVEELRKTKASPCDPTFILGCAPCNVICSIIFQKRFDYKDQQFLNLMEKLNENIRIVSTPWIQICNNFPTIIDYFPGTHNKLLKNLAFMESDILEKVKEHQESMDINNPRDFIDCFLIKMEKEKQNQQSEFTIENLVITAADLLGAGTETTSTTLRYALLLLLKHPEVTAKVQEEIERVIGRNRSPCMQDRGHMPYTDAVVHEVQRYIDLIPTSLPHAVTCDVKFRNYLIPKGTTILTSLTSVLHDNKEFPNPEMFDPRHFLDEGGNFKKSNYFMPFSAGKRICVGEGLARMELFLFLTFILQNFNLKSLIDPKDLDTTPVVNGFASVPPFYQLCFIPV
row,Compound,IC50
1,CC[C@]1(O)CC[C@H]2[C@@H]3CCC4=CCCC[C@@H]4[C@H]3CC[C@@]21C,1.29 µM
2,O=C(c1ccccc1Cl)N1CCC(Cc2ccccc2)CC1,0.2 µM
3,COc1ccc(Cc2nccc3cc(OC)c(OC)cc23)cc1OC [PAPAVERINE],0.762 µM

# Biological target: T1, 5-hydroxytryptamine receptor 2C (Homo sapiens, UniProt P28335)
# T1 sequence (P28335 whole entry): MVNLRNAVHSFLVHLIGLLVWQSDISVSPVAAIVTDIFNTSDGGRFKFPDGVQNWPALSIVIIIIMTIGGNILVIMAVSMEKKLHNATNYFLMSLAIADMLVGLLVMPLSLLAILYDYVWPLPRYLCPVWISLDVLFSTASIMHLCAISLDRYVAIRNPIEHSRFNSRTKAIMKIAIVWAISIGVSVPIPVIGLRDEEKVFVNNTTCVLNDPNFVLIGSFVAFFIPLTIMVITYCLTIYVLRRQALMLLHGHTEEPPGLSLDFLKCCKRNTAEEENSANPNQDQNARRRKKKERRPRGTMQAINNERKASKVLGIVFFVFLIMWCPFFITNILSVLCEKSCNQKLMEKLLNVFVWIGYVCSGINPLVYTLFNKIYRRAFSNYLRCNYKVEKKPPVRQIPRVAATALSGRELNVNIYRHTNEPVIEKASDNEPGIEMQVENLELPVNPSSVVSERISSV
# Experiment: DRUGMATRIX: Serotonin (5-Hydroxytryptamine) 5-HT2C radioligand binding (ligand: [3H] Mesulergine)
# Type: cell membranes, CHO-K1, Membrane
# Details: cho-k1; Not Active = under 50% inhibition at 10 µM
Compound,IC50,Ki
CC[C@]1(O)CC[C@H]2[C@@H]3CCC4=CCCC[C@@H]4[C@H]3CC[C@@]21C,Not Active,
O=C(c1ccccc1Cl)N1CCC(Cc2ccccc2)CC1,Not Active,
C#C[C@]1(O)CC[C@H]2[C@@H]3CCC4=Cc5oncc5C[C@]4(C)[C@H]3CC[C@@]21C [DANAZOL],Not Active,
C#C[C@]1(O)CC[C@H]2[C@@H]3CCc4cc(O)ccc4[C@H]3CC[C@@]21C [ETHINYL ESTRADIOL],Not Active,
CC(=O)O[C@]1(C(C)=O)CC[C@H]2[C@@H]3C=C(C)C4=CC(=O)CC[C@]4(C)[C@H]3CC[C@@]21C [MEGESTROL ACETATE],Not Active,
CN(Cc1cnc2nc(N)nc(N)c2n1)c1ccc(C(=O)N[C@@H](CCC(=O)O)C(=O)O)cc1 [METHOTREXATE],Not Active,
CNC(=C[N+](=O)[O-])NCCSCc1csc(CN(C)C)n1 [NIZATIDINE],Not Active,
COc1ccc(Cc2nccc3cc(OC)c(OC)cc23)cc1OC [PAPAVERINE],Not Active,
Cc1cccc(Nc2cc(Cl)nc(SCC(=O)O)n2)c1C [PIRINIXIC ACID],Not Active,
COBALT(II) ACETYLACETONATE,Not Active,Not Active
INSULIN HUMAN,Not Active,Not Active
POLYVINYL ALCOHOL,Not Active,Not Active

# Biological target: T2, Androgen receptor (Rattus norvegicus, UniProt P15207); note: in other assays of this panel Not Active means under 50% inhibition at 10 µM
# T2 sequence (P15207 whole entry): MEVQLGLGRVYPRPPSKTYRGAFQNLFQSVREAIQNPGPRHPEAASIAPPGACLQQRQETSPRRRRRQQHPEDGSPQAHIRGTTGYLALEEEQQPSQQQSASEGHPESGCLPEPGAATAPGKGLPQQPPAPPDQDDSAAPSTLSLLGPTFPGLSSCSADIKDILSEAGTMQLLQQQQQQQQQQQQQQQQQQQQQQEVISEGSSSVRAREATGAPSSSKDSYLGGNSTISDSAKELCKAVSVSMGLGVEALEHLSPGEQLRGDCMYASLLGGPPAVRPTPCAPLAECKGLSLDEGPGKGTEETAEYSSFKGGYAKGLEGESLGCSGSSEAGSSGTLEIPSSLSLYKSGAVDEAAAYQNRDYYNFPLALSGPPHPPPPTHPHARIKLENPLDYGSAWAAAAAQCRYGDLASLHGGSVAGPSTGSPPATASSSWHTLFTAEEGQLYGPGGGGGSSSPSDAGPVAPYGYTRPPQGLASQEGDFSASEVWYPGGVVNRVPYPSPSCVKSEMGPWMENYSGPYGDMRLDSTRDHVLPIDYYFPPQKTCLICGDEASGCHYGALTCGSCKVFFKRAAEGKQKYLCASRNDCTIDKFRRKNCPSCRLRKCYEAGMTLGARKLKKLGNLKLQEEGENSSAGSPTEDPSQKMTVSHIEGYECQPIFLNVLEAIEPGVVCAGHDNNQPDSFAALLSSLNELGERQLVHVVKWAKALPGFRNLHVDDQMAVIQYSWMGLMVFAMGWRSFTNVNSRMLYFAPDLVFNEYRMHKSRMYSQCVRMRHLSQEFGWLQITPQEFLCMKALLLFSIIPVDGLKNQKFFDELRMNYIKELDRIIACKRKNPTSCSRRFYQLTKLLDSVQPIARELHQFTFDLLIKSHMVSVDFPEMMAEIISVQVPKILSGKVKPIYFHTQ
# Experiment: not given
# Details: not given
Compound,IC50,Ki
O=C(c1ccccc1Cl)N1CCC(Cc2ccccc2)CC1,Not Active,
CN(Cc1cnc2nc(N)nc(N)c2n1)c1ccc(C(=O)N[C@@H](CCC(=O)O)C(=O)O)cc1 [METHOTREXATE],Not Active,
CNC(=C[N+](=O)[O-])NCCSCc1csc(CN(C)C)n1 [NIZATIDINE],Not Active,
COc1ccc(Cc2nccc3cc(OC)c(OC)cc23)cc1OC [PAPAVERINE],Not Active,
Cc1cccc(Nc2cc(Cl)nc(SCC(=O)O)n2)c1C [PIRINIXIC ACID],Not Active,
COBALT(II) ACETYLACETONATE,Not Active,Not Active
INSULIN HUMAN,Not Active,Not Active
POLYVINYL ALCOHOL,Not Active,Not Active

# Biological target: T3, Alpha-2C adrenergic receptor (Homo sapiens, UniProt P18825)
# T3 sequence (P18825 whole entry): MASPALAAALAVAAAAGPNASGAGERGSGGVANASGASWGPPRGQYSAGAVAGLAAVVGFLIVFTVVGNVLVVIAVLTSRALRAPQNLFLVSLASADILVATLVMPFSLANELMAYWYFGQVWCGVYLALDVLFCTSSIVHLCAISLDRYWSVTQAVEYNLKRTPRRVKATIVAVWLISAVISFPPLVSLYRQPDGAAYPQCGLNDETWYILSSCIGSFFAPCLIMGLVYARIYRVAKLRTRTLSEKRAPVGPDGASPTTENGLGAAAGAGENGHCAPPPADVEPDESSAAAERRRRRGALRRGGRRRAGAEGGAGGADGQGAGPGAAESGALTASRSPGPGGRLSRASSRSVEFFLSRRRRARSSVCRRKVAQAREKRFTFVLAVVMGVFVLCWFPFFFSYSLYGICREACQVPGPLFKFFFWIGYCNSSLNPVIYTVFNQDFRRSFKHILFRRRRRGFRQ
# Experiment: DRUGMATRIX: Adrenergic Alpha-2C radioligand binding (ligand: [3H] MK-912)
# Type: cell membranes, Sf9, Membrane
# Details: read-out: IC50
row,Compound,IC50
1,C#C[C@]1(O)CC[C@H]2[C@@H]3CCC4=Cc5oncc5C[C@]4(C)[C@H]3CC[C@@]21C [DANAZOL],23.8 µM

# Same assay, conditions: read-out: Ki
row,Compound,Ki
1,C#C[C@]1(O)CC[C@H]2[C@@H]3CCC4=Cc5oncc5C[C@]4(C)[C@H]3CC[C@@]21C [DANAZOL],3.45 µM

# Same assay, conditions: sf9
Compound,IC50,Ki
CC[C@]1(O)CC[C@H]2[C@@H]3CCC4=CCCC[C@@H]4[C@H]3CC[C@@]21C,Not Active,
O=C(c1ccccc1Cl)N1CCC(Cc2ccccc2)CC1,Not Active,
C#C[C@]1(O)CC[C@H]2[C@@H]3CCc4cc(O)ccc4[C@H]3CC[C@@]21C [ETHINYL ESTRADIOL],Not Active,
CC(=O)O[C@]1(C(C)=O)CC[C@H]2[C@@H]3C=C(C)C4=CC(=O)CC[C@]4(C)[C@H]3CC[C@@]21C [MEGESTROL ACETATE],Not Active,
CN(Cc1cnc2nc(N)nc(N)c2n1)c1ccc(C(=O)N[C@@H](CCC(=O)O)C(=O)O)cc1 [METHOTREXATE],Not Active,
CNC(=C[N+](=O)[O-])NCCSCc1csc(CN(C)C)n1 [NIZATIDINE],Not Active,
COc1ccc(Cc2nccc3cc(OC)c(OC)cc23)cc1OC [PAPAVERINE],Not Active,
Cc1cccc(Nc2cc(Cl)nc(SCC(=O)O)n2)c1C [PIRINIXIC ACID],Not Active,
COBALT(II) ACETYLACETONATE,Not Active,Not Active
INSULIN HUMAN,Not Active,Not Active
POLYVINYL ALCOHOL,Not Active,Not Active

# Biological target: T4, Glucocorticoid receptor (Homo sapiens, UniProt P04150); note: in other assays of this panel Not Active means under 50% inhibition at 10 µM
# T4 sequence (P04150 whole entry): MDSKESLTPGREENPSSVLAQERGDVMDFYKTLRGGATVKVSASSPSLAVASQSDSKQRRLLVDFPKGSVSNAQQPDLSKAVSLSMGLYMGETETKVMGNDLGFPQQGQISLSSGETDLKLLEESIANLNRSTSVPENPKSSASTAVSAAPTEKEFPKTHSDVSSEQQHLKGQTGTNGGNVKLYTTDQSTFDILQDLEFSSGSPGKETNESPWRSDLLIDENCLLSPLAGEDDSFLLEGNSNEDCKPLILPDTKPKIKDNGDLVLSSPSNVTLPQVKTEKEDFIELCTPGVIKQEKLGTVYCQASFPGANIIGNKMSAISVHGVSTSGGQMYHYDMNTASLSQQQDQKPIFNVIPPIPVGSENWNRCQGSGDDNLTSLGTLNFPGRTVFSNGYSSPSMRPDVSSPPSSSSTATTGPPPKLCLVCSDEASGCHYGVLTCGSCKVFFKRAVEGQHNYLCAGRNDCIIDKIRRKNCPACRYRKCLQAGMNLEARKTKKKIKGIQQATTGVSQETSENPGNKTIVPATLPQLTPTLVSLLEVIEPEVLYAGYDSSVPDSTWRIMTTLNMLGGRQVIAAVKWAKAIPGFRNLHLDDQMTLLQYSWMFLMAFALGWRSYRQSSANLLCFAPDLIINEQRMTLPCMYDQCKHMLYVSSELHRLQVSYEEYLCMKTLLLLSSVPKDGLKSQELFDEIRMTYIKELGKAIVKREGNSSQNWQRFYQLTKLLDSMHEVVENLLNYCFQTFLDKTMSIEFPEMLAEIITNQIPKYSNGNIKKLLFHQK
# Experiment: biochemical
# Details: not given
Compound,IC50,Ki
C#C[C@]1(O)CC[C@H]2[C@@H]3CCC4=Cc5oncc5C[C@]4(C)[C@H]3CC[C@@]21C [DANAZOL],4.31 µM,1.96 µM
C#C[C@]1(O)CC[C@H]2[C@@H]3CCc4cc(O)ccc4[C@H]3CC[C@@]21C [ETHINYL ESTRADIOL],1.71 µM,0.777 µM
CC(=O)O[C@]1(C(C)=O)CC[C@H]2[C@@H]3C=C(C)C4=CC(=O)CC[C@]4(C)[C@H]3CC[C@@]21C [MEGESTROL ACETATE],0.019 µM,0.00877 µM
